Biological target: T1, androgen receptor (Homo sapiens, UniProt P10275)
T1 sequence (P10275 1-920 Q868H): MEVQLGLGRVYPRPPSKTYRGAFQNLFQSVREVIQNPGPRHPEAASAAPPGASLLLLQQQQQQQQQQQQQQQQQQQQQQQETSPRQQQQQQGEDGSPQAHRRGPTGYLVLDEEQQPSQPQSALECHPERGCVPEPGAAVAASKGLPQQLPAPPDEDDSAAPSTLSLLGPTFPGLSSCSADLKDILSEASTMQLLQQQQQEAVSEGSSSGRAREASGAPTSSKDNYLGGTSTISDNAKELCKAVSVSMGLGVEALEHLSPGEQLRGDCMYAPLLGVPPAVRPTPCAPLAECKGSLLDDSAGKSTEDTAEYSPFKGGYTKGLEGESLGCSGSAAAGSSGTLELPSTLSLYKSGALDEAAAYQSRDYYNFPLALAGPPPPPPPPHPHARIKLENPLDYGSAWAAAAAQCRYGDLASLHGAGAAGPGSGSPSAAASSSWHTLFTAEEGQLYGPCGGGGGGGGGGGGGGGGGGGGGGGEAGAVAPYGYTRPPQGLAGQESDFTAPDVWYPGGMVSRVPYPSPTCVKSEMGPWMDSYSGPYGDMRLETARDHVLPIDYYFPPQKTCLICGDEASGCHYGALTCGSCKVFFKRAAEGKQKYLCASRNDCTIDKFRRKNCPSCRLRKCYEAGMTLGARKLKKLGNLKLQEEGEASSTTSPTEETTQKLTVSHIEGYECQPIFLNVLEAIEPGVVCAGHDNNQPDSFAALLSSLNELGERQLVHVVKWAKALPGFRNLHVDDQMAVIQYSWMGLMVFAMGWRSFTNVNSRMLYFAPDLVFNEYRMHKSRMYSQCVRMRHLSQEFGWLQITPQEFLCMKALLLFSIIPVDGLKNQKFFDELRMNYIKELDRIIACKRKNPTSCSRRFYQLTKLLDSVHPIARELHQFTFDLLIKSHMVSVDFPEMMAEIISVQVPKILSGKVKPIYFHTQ
Experiment: AR Antagonist Cell Assay (MMTV-luciferase reporter, DHT-induced)
Format: cell-based
Details: MDA-MB453-MMTV clone 54-19 cells, 100 pM DHT, 17 hr
Protocol: The compounds ability to antagonize the effects of androgen on the androgen receptor were determined in the protocol described immediately below.
Experimental Procedure for AR Antagonist Cell Assay
Cell line: MDA-MB453-MMTV clone 54-19. This cell line is a stable transfected cell line with MDA-MB453 cell background (human breast tumor cell expressing high level of androgen receptor). A MMTV minimal promoter containing ARE was first cloned in front of a firefly luciferase reporter gene. Then the cascade was cloned into transfection vector pUV120puro. Electroporation method was used for transfecting MDA-MB-453 cell. Puromycin resistant stable cell line was selected.
Cell Culture Media and Reagents:
Culture medium: DMEM (high glucose, Gibco cat #: 11960-044), 10% FBS, and 1% L-glutamine
Plating medium: DMEM (phenol red free), 10% charcoal treated HyClone serum, 1% L-glutamine
Assay medium: DMEM (phenol red free), 1% charcoal treated HyClone serum, 1% L-glutamine, and 1% penicillin/streptomycin
3× luciferase buffer: 2% beta-mercaptoethanol, 0.6% ATP, 0.0135% luciferine in cell lysis buffer
• 1. Cells are maintained in culture medium, splitting cells when they reach 80–90% confluence • 2. To test compounds, 10,000 cells/well are plated to opaque 96 cell culture plate in 100 ul/well plating medium, culture for overnight at 37° C. in cell culture incubator • 3. Carefully remove plating medium, then add 80 ul/well of pre-warmed assay medium, add 10 ul/well testing compound (final concentration at 10 uM or 1 uM), incubate at 37° C. for 30 minutes • 4. Add 10 ul/well freshly prepared DHT (final concentration at 100 pM) to each well, incubate at 37° C. for 17 hr (overnight) • 5. Add 50 ul/well 3× luciferase buffer, incubate at room temperature for 5 minutes, then count on Luminometer The fold induction over background by 100 pM DHT in the absence of testing compounds is standardized as 100% and experimental result is expressed as percentage of inhibition by testing compounds. TABLE3

Structure (SMILES) | IC50
Cn1c(=O)cc(C(F)(F)F)c2cc(S(=O)(=O)NCCc3ccccc3)ccc21 [Example 50, 1-Methyl-2-oxo-4-trifluoromethyl-1,2-dihydroquinoline-6-sulfonicacid phenethylamide] | 1.55 µM
Cc1ccccc1CNS(=O)(=O)c1ccc2[nH]c(=O)cc(C(F)(F)F)c2c1 [Example 124, 2-Oxo-4-trifluoromethyl-1,2-dihydroquinoline-6-sulfonic acid2-methylbenzylamide] | 4.61 µM
Cn1c(=O)cc(C(F)(F)F)c2cc(S(=O)(=O)Nc3ccccc3CO)ccc21 [Example 19, 1-Methyl-2-oxo-4-trifluoromethyl-1,2-dihydroquinoline-6-sulfonicacid(2-hydroxymethylphenyl)amide] | > 10 µM
CN(CCC#N)S(=O)(=O)c1ccc2[nH]c(=O)cc(C(F)(F)F)c2c1 [Example 77, 2-Oxo-4-trifluoromethyl-1,2-dihydroquinoline-6-sulfonic acid(2-cyanoethyl)methylamide] | 1.04 µM
CCCCN(CCO)S(=O)(=O)c1ccc2c(c1)c(C(F)(F)F)cc(=O)n2C [Example 5, 1-Methyl-2-oxo-4-trifluoromethyl-1,2-dihydroquinoline-6-sulfonicacid butyl(2-hydroxyethyl)-amide] | > 10 µM
Cc1cc2c(NS(=O)(=O)c3ccc4[nH]c(=O)cc(C(F)(F)F)c4c3)cccc2nn1 [Example 108, 2-Oxo-4-trifluoromethyl-1,2-dihydroquinoline-6-sulfonic acid(3-methylcinnolin-5-yl)amide] | > 10 µM
Cn1c(=O)cc(C(F)(F)F)c2cc(S(=O)(=O)Nc3cccc4cccnc34)ccc21 [Example 34, 1-Methyl-2-oxo-4-trifluoromethyl-1,2-dihydroquinoline-6-sulfonicacid quinolin-8-ylamide] | > 10 µM
Cc1cccc(C)c1NS(=O)(=O)c1ccc2[nH]c(=O)cc(C(F)(F)F)c2c1 [Example 90, 2-Oxo-4-trifluoromethyl-1,2-dihydroquinoline-6-sulfonic acid(2,6-dimethylphenyl)amide] | > 10 µM
CN(C)CCN(C)S(=O)(=O)c1ccc2[nH]c(=O)cc(C(F)(F)F)c2c1 [Example 72] | > 10 µM
Cn1c(=O)cc(C(F)(F)F)c2cc(S(=O)(=O)Nc3cccc(Cc4ccccc4)c3)ccc21 [Example 43, 1-Methyl-2-oxo-4-trifluoromethyl-1,2-dihydroquinoline-6-sulfonicacid (3-benzylphenyl)amide] | > 10 µM
Cc1cc(=O)oc2cc(NS(=O)(=O)c3ccc4[nH]c(=O)cc(C(F)(F)F)c4c3)ccc12 [Example 111, 2-Oxo-4-trifluoromethyl-1,2-dihydroquinoline-6-sulfonic acid(4-methyl-2-oxo-2H-chromen-7-yl)amide] | > 10 µM
Cn1c(=O)cc(C(F)(F)F)c2cc(S(=O)(=O)Nc3ccc4c(c3)OCO4)ccc21 [Example 26, 1-Methyl-2-oxo-4-trifluoromethyl-1,2-dihydroquinoline-6-sulfonicacid benzo[1,3]dioxol-5-ylamide] | 4.04 µM
O=c1cc(C(F)(F)F)c2cc(S(=O)(=O)NCc3cccs3)ccc2[nH]1 [Example 118, 2-Oxo-4-trifluoromethyl-1,2-dihydroquinoline-6-sulfonic acid(thiophen-2-ylmethyl)amide] | > 10 µM
O=c1cc(C(F)(F)F)c2cc(S(=O)(=O)Nc3cccc(OC(F)(F)F)c3)ccc2[nH]1 [Example 112, 2-Oxo-4-trifluoromethyl-1,2-dihydroquinoline-6-sulfonic acid(3-trifluoromethoxyphenyl)amide] | 0.12 µM
CCc1ccc(NS(=O)(=O)c2ccc3c(c2)c(C(F)(F)F)cc(=O)n3C)cc1 [Example 17, 1-Methyl-2-oxo-4-trifluoromethyl-1,2-dihydroquinoline-6-sulfonicacid (4-ethylphenyl)amide] | 0.87 µM
COc1cc(NS(=O)(=O)c2ccc3[nH]c(=O)cc(C(F)(F)F)c3c2)cc(OC)c1 [Example 103, 2-Oxo-4-trifluoromethyl-1,2-dihydroquinoline-6-sulfonic acid(3,5-dimethoxyphenyl)amide] | 0.2 µM
O=c1cc(C(F)(F)F)c2cc(S(=O)(=O)Nc3cccnc3)ccc2[nH]1 [Example 81, 2-Oxo-4-trifluoromethyl-1,2-dihydroquinoline-6-sulfonic acidpyridin-3-ylamide] | > 10 µM
CCCCN(C)S(=O)(=O)c1ccc2c(c1)c(C(F)(F)F)cc(=O)n2C [Example 8, 1-Methyl-2-oxo-4-trifluoromethyl-1,2-dihydroquinoline-6-sulfonicacid butyimethylamide] | > 10 µM
Cc1cccc(Cl)c1CNS(=O)(=O)c1ccc2[nH]c(=O)cc(C(F)(F)F)c2c1 [Example 144, 2-Oxo-4-trifluoromethyl-1,2-dihydroquinoline-6-sulfonic acid2-chloro-6-methylbenzylamide] | 5.53 µM
CC(C)(C)CCNS(=O)(=O)c1ccc2[nH]c(=O)cc(C(F)(F)F)c2c1 [Example 122, 2-Oxo-4-trifluoromethyl-1,2-dihydroquinoline-6-sulfonic acid(3,3-dimethylbutyl)amide] | 1.03 µM
CCOC(=O)Cc1ccc(NS(=O)(=O)c2ccc3c(c2)c(C(F)(F)F)cc(=O)n3C)cc1 [Example 42, [4-(1-Methyl-2-oxo-4-trifluoromethyl-1,2-dihydroquinoline-6-sulfonylamino)phenyl]aceticacid ethyl ester] | > 10 µM
O=c1cc(C(F)(F)F)c2cc(S(=O)(=O)Nc3ccc(CCO)cc3)ccc2[nH]1 [Example 113, 2-Oxo-4-trifluoromethyl-1,2-dihydroquinoline-6-sulfonic acid[4-(2-hydroxyethyl)phenyl]amide] | > 10 µM
Cc1ccc(F)cc1NS(=O)(=O)c1ccc2c(c1)c(C(F)(F)F)cc(=O)n2C [Example 30, 1-Methyl-2-oxo-4-trifluoromethyl-1,2-dihydroquinoline-6-sulfonicacid (5-fluoro-2-methylphenyl)amide] | > 10 µM
CC(=O)c1cccc(NS(=O)(=O)c2ccc3c(c2)c(C(F)(F)F)cc(=O)n3C)c1 [Example 24, 1-Methyl-2-oxo-4-trifluoromethyl-1,2-dihydroquinoline-6-sulfonicacid (3-acetylphenyl)amide] | 4.23 µM
O=c1cc(C(F)(F)F)c2cc(S(=O)(=O)NCC(c3ccccc3)c3ccccc3)ccc2[nH]1 [Example 159, 2-Oxo-4-trifluoromethyl-1,2-dihydroquinoline-6-sulfonic acid(2,2-diphenylethyl)amide] | 1.56 µM
CC(C)c1ccc(NS(=O)(=O)c2ccc3c(c2)c(C(F)(F)F)cc(=O)n3C)cc1 [Example 25, 1-Methyl-2-oxo-4-trifluoromethyl-1,2-dihydroquinoline-6-sulfonicacid (4-isopropylphenyl)amide] | 8.61 µM
N#CCc1ccc(NS(=O)(=O)c2ccc3[nH]c(=O)cc(C(F)(F)F)c3c2)cc1 [Example 95, 2-Oxo-4-trifluoromethyl-1,2-dihydroquinoline-6-sulfonic acid(4-cyanomethylphenyl)amide] | 0.84 µM
O=c1cc(C(F)(F)F)c2cc(S(=O)(=O)NCc3ccccc3C(F)(F)F)ccc2[nH]1 [Example 153, 2-Oxo-4-trifluoromethyl-1,2-dihydroquinoline-6-sulfonic acid2-trifluoromethylbenzylamide] | 0.75 µM
